Data from patent US6638973B2, “Taxane formulations” (FSU Research Foundation, Inc., priority 2000, dated 2003).

These compounds were tested on HCT116 cells (assay: In vitro cytotoxicity measured by the cell colony formation assay). Conditions: HCT116 colony formation; 72 h drug incubation, colonies counted after 7 days; Example 10, C-10 ester/C-7 hydroxy taxanes; read-out: IN VITRO ID 50 (nm) HCT116.
Format: cell-based
Experimental: (§1) Four hundred cells (HCT116) were plated in 60 mm Petri dishes containing 2.7 mL of medium (modified McCoy's 5a medium containing 10% fetal bovine serum and 100 units/mL penicillin and 100 µg/mL streptomycin). The cells were incubated in a CO2 incubator at 37° C. for 5 h for attachment to the bottom of Petri dishes. The compounds identified in Example 2 were made up fresh in medium at ten times the final concentration, and then 0.3 mL of this stock solution was added to the 2.7 mL of medium in the dish. The cells were then incubated with drugs for 72 h at 37° C. At the end of incubation the drug-containing media were decanted, the dishes were rinsed with 4 mL of Hank's Balance Salt Solution (HBSS), 5 mL of fresh medium was added, and the dishes were returned to the incubator for colony formation. The cell colonies were counted using a colony counter after incubation for 7 days.
as §1, with “Example 7” for “Example 2”
as §1, with “Example 22” for “Example 2”
as §1, with “Example 27” for “Example 2”
Four hundred cells (HCT116) were plated in 60 mm Petri dishes containing 2.7 mL of medium (modified McCoy's 5a medium containing 10% fetal bovine serum and 100 units/mL penicillin and 100 µg/mL streptomycin). The cells were incubated in a CO2 incubator at 37° C. for 5 h for attachment to the bottom of Petri dishes. […]

Row | SMILES | IC50 [nM]
1 | CCC(=O)O[C@H]1C(=O)[C@@]2(C)C([C@H](OC(=O)c3ccccc3)[C@]3(O)C[C@H](OC(=O)[C@H](O)[C@H](C=C(C)C)NC(=O)OC(C)(C)C)C(C)=C1C3(C)C)[C@]1(OC(C)=O)CO[C@@H]1C[C@@H]2O (some centres unmarked) [Compound 0499] | < 1
2 | CCC(=O)O[C@H]1C(=O)[C@@]2(C)C([C@H](OC(=O)c3ccccc3)[C@]3(O)C[C@H](OC(=O)[C@H](O)[C@@H](NC(=O)OC(C)(C)C)c4ccccn4)C(C)=C1C3(C)C)[C@]1(OC(C)=O)CO[C@@H]1C[C@@H]2O (some centres unmarked) [Compound 0503] | < 1
3 | CCC(=O)O[C@H]1C(=O)[C@@]2(C)C([C@H](OC(=O)c3ccccc3)[C@]3(O)C[C@H](OC(=O)[C@H](O)[C@@H](NC(=O)OC(C)(C)C)c4cccnc4)C(C)=C1C3(C)C)[C@]1(OC(C)=O)CO[C@@H]1C[C@@H]2O (some centres unmarked) [Compound 0517] | < 10
4 | CCC(=O)O[C@H]1C(=O)[C@@]2(C)C([C@H](OC(=O)c3ccccc3)[C@]3(O)C[C@H](OC(=O)[C@H](O)[C@@H](NC(=O)OC(C)(C)C)c4ccncc4)C(C)=C1C3(C)C)[C@]1(OC(C)=O)CO[C@@H]1C[C@@H]2O (some centres unmarked) [Compound 0521] | < 1
5 | CCC(=O)O[C@H]1C(=O)[C@@]2(C)C([C@H](OC(=O)c3ccccc3)[C@]3(O)C[C@H](OC(=O)[C@H](O)[C@@H](NC(=O)OC(C)(C)C)c4ccco4)C(C)=C1C3(C)C)[C@]1(OC(C)=O)CO[C@@H]1C[C@@H]2O (some centres unmarked) [Compound 0536] | < 1
6 | CCC(=O)O[C@H]1C(=O)[C@@]2(C)C([C@H](OC(=O)c3ccccc3)[C@]3(O)C[C@H](OC(=O)[C@H](O)[C@@H](NC(=O)OC(C)(C)C)c4ccoc4)C(C)=C1C3(C)C)[C@]1(OC(C)=O)CO[C@@H]1C[C@@H]2O (some centres unmarked) [Compound 0549] | < 10
7 | CCC(=O)O[C@H]1C(=O)[C@@]2(C)C([C@H](OC(=O)c3ccccc3)[C@]3(O)C[C@H](OC(=O)[C@H](O)[C@@H](NC(=O)OC(C)(C)C)c4cccs4)C(C)=C1C3(C)C)[C@]1(OC(C)=O)CO[C@@H]1C[C@@H]2O (some centres unmarked) [Compound 0550] | < 10
8 | CCC(=O)O[C@H]1C(=O)[C@@]2(C)C([C@H](OC(=O)c3ccccc3)[C@]3(O)C[C@H](OC(=O)[C@H](O)[C@@H](NC(=O)OC(C)(C)C)c4ccsc4)C(C)=C1C3(C)C)[C@]1(OC(C)=O)CO[C@@H]1C[C@@H]2O (some centres unmarked) [Compound 0562] | < 1
9 | CCC(=O)O[C@H]1C(=O)[C@@]2(C)C([C@H](OC(=O)c3ccccc3)[C@]3(O)C[C@H](OC(=O)[C@H](O)[C@@H](NC(=O)OC(C)(C)C)C4CC4)C(C)=C1C3(C)C)[C@]1(OC(C)=O)CO[C@@H]1C[C@@H]2O (some centres unmarked) [Compound 0578] | < 1
10 | CCC(=O)O[C@H]1C(=O)[C@@]2(C)C([C@H](OC(=O)c3ccccc3)[C@]3(O)C[C@H](OC(=O)[C@H](O)[C@@H](NC(=O)OC(C)(C)C)C(C)C)C(C)=C1C3(C)C)[C@]1(OC(C)=O)CO[C@@H]1C[C@@H]2O (some centres unmarked) [Compound 0583] | < 10
11 | CCC(=O)O[C@H]1C(=O)[C@@]2(C)C([C@H](OC(=O)c3ccccc3)[C@]3(O)C[C@H](OC(=O)[C@H](O)[C@@H](NC(=O)OC(C)(C)C)C4CCC4)C(C)=C1C3(C)C)[C@]1(OC(C)=O)CO[C@@H]1C[C@@H]2O (some centres unmarked) [Compound 0596] | < 10
12 | CCC(=O)O[C@H]1C(=O)[C@@]2(C)C([C@H](OC(=O)c3ccccc3)[C@]3(O)C[C@H](OC(=O)[C@H](O)[C@@H](NC(=O)OC(C)(C)C)c4ccc([N+](=O)[O-])cc4)C(C)=C1C3(C)C)[C@]1(OC(C)=O)CO[C@@H]1C[C@@H]2O (some centres unmarked) [Compound 0602] | < 1
13 | CCC(=O)O[C@H]1C(=O)[C@@]2(C)C([C@H](OC(=O)c3ccccc3)[C@]3(O)C[C@H](OC(=O)[C@H](O)[C@@H](NC(=O)OC(C)(C)C)c4ccccc4)C(C)=C1C3(C)C)[C@]1(OC(C)=O)CO[C@@H]1C[C@@H]2O (some centres unmarked) [Compound 0611] | < 10
14 | CCC(=O)O[C@H]1C(=O)[C@@]2(C)C([C@H](OC(=O)c3ccccc3)[C@]3(O)C[C@H](OC(=O)[C@H](O)[C@H](C=C(C)C)NC(=O)c4ccccc4)C(C)=C1C3(C)C)[C@]1(OC(C)=O)CO[C@@H]1C[C@@H]2O (some centres unmarked) [Compound 0625] | < 1
15 | CCC(=O)O[C@H]1C(=O)[C@@]2(C)C([C@H](OC(=O)c3ccccc3)[C@]3(O)C[C@H](OC(=O)[C@H](O)[C@@H](NC(=O)c4ccccc4)c4ccccn4)C(C)=C1C3(C)C)[C@]1(OC(C)=O)CO[C@@H]1C[C@@H]2O (some centres unmarked) [Compound 0634] | < 10
16 | CCC(=O)O[C@H]1C(=O)[C@@]2(C)C([C@H](OC(=O)c3ccccc3)[C@]3(O)C[C@H](OC(=O)[C@H](O)[C@@H](NC(=O)c4ccccc4)c4cccnc4)C(C)=C1C3(C)C)[C@]1(OC(C)=O)CO[C@@H]1C[C@@H]2O (some centres unmarked) [Compound 0647] | 12
17 | CCC(=O)O[C@H]1C(=O)[C@@]2(C)C([C@H](OC(=O)c3ccccc3)[C@]3(O)C[C@H](OC(=O)[C@H](O)[C@@H](NC(=O)c4ccccc4)c4ccncc4)C(C)=C1C3(C)C)[C@]1(OC(C)=O)CO[C@@H]1C[C@@H]2O (some centres unmarked) [Compound 0659] | < 1
18 | CCC(=O)O[C@H]1C(=O)[C@@]2(C)C([C@H](OC(=O)c3ccccc3)[C@]3(O)C[C@H](OC(=O)[C@H](O)[C@@H](NC(=O)c4ccccc4)c4ccco4)C(C)=C1C3(C)C)[C@]1(OC(C)=O)CO[C@@H]1C[C@@H]2O (some centres unmarked) [Compound 0663] | < 1
19 | CCC(=O)O[C@H]1C(=O)[C@@]2(C)C([C@H](OC(=O)c3ccccc3)[C@]3(O)C[C@H](OC(=O)[C@H](O)[C@@H](NC(=O)c4ccccc4)c4ccoc4)C(C)=C1C3(C)C)[C@]1(OC(C)=O)CO[C@@H]1C[C@@H]2O (some centres unmarked) [Compound 0670] | < 1
20 | CCC(=O)O[C@H]1C(=O)[C@@]2(C)C([C@H](OC(=O)c3ccccc3)[C@]3(O)C[C@H](OC(=O)[C@H](O)[C@@H](NC(=O)c4ccccc4)c4ccsc4)C(C)=C1C3(C)C)[C@]1(OC(C)=O)CO[C@@H]1C[C@@H]2O (some centres unmarked) [Compound 0691] | < 1
21 | CCC(=O)O[C@H]1C(=O)[C@@]2(C)C([C@H](OC(=O)c3ccccc3)[C@]3(O)C[C@H](OC(=O)[C@H](O)[C@@H](NC(=O)c4ccccc4)C4CC4)C(C)=C1C3(C)C)[C@]1(OC(C)=O)CO[C@@H]1C[C@@H]2O (some centres unmarked) [Compound 0706] | < 1
22 | CCC(=O)O[C@H]1C(=O)[C@@]2(C)C([C@H](OC(=O)c3ccccc3)[C@]3(O)C[C@H](OC(=O)[C@H](O)[C@@H](NC(=O)c4ccccc4)C(C)C)C(C)=C1C3(C)C)[C@]1(OC(C)=O)CO[C@@H]1C[C@@H]2O (some centres unmarked) [Compound 0719] | < 10
23 | CCC(=O)O[C@H]1C(=O)[C@@]2(C)C([C@H](OC(=O)c3ccccc3)[C@]3(O)C[C@H](OC(=O)[C@H](O)[C@@H](NC(=O)c4ccccc4)C4CCC4)C(C)=C1C3(C)C)[C@]1(OC(C)=O)CO[C@@H]1C[C@@H]2O (some centres unmarked) [Compound 0720] | < 10
24 | CCC(=O)O[C@H]1C(=O)[C@@]2(C)C([C@H](OC(=O)c3ccccc3)[C@]3(O)C[C@H](OC(=O)[C@H](O)[C@@H](NC(=O)c4ccccc4)c4ccc([N+](=O)[O-])cc4)C(C)=C1C3(C)C)[C@]1(OC(C)=O)CO[C@@H]1C[C@@H]2O (some centres unmarked) [Compound 0732] | < 10
25 | CCC(=O)O[C@H]1C(=O)[C@@]2(C)C([C@H](OC(=O)c3ccccc3)[C@]3(O)C[C@H](OC(=O)[C@H](O)[C@@H](NC(=O)c4ccccc4)c4ccccc4)C(C)=C1C3(C)C)[C@]1(OC(C)=O)CO[C@@H]1C[C@@H]2O (some centres unmarked) [Compound 0748] | < 10
26 | CC(=O)O[C@@]12CO[C@@H]1C[C@H](O)[C@@]1(C)C(=O)[C@H](OC(=O)C3CC3)C3=C(C)[C@@H](OC(=O)[C@H](O)[C@H](C=C(C)C)NC(=O)OC(C)(C)C)C[C@@](O)([C@@H](OC(=O)c4ccccc4)C12)C3(C)C (some centres unmarked) [Compound 0838] | < 1
